Target: T1, human growth hormone secretagogue receptor-1a (hGHS-R1a) (Homo sapiens, UniProt Q92847)
T1 construct: The full length hGHS-R1a was subcloned into the mammalian expression vector pcDNA 3.1; expressed in transfected cells
Assay: hGHS-R1a binding assay, (125I)ghrelin displacement on CHO-K1 cell membranes
Settings: membranes of CHO-K1 cells expressing hGHS-R1a; 0.05 nM (125I)ghrelin; sixty minute incubation at 4° C.
Excerpt: A. Preparation of CHO-K1 cells expressing the human recombinant GHS receptor-1a
The cDNA for human growth hormone secretagogue receptor-1a (hGHS-R1a) was cloned by Polymerase Chain Reaction (PCR) using human brain RNA as a template (Clontech®, Palo Alto, Calif.), gene specific primers flanking the full-length coding sequence of hGHS-R1a, (S: 5′-[…]-3′ and AS: 5′-[…]-3′), and an Advantage 2 PCR Kit® (Clontech®). The PCR product was cloned into the pCR2.1 vector using an Original TA Cloning Kit® (Invitrogen®, Carlsbad, Calif.). The full length hGHS-R1a was subcloned into the mammalian expression vector pcDNA 3.1 (Invitrogen®, Carlsbad, Calif.). The plasmid was transfected into the Chinese hamster ovary cell line, CHO-K1 (American Type Culture Collection®, Rockville, Md.), by calcium phosphate method (Wigler, M et al., Cell, (1977), 11:223). Single cell clones stably expressing the hGHS-R1a were obtained by selecting transfected cells grown in cloning rings in RPMI 1640 media supplemented with 10% fetal bovine serum and 1 mM sodium pyruvate containing 0.8 mg/ml G418 (Gibco®, Grand Island, N.Y.).
B. hGHS-R1a Binding Assay:
Membranes for radioligand binding studies can be and were prepared by homogenization of the foregoing CHO-K1 cells expressing the hGHS-R1a in 20 ml of ice-cold 50 mM Tris-HCl with a Brinkman Polytron® (Westbury, N.Y.) (setting 6, 15 sec). The homogenates were washed twice by centrifugation (39,000 g/10 min) and the final pellets were re-suspended in 50 mM Tris-HCl containing 2.5 mM MgCl2 and 0.1% BSA. For the assay, aliquots (0.4 ml) were incubated with 0.05 nM (^125I)ghrelin (˜2000 Ci/mmol)(Perkin Elmer Life Sciences®, Boston, Mass.) with and without 0.05 ml of unlabeled competing test compounds of the invention. After a sixty minute incubation at 4° C., the bound (^125I)ghrelin was separated from the free by rapid filtration through GF/C filters (Brandel®, Gaithersburg, Md.) which were previously soaked in 0.5% polyethyleneimine/0.1% BSA. The filters were then washed three times with 5-ml aliquots of ice-cold 50 mM Tris-HCl and 0.1% bovine serum albumin and the bound radioactivity trapped on the filters was counted by gamma spectrometry (Wallac LKB®, Gaithersburg, Md.). Specific binding was defined as the total (^125I)ghrelin bound minus that bound in the presence of 1000 nM ghrelin

T1 sequence (Q92847 whole entry): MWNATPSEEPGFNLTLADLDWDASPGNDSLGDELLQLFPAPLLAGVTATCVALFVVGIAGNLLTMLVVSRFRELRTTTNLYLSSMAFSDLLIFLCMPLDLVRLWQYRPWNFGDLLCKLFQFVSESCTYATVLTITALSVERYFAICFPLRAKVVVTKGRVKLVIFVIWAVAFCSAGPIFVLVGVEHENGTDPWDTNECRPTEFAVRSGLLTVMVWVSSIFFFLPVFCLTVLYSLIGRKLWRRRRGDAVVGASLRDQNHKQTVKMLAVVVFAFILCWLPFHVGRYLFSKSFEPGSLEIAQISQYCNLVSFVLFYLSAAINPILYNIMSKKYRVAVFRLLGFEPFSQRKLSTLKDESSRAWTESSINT

With `CC(C)(N)C(=O)N[C@H](Cc1csc2ccccc12)C(=O)N[C@H](Cc1c[nH]c2ccccc12)NC=O` [#1, Aib-D-Bal-DgTrp-CHO] the Ki was 15 nM.

`CC(C)(N)C(=O)N[C@H](Cc1csc2ccccc12)C(=O)N[C@H](Cc1cccc2ccccc12)NC=O` [#2] was tested, and the Ki was 236 nM.

For `CC(C)(N)C(=O)N[C@H](Cc1csc2ccccc12)C(=O)N[C@H](Cc1csc2ccccc12)NC=O` [#4], the Ki was 92.1 nM.

With `CC(C)(N)C(=O)N[C@H](Cc1c[nH]c2ccccc12)C(=O)N[C@H](Cc1csc2ccccc12)NC=O` [#5] the Ki was 279 nM.

Work on `CC(C)(N)C(=O)N[C@H](Cc1cccc2ccccc12)C(=O)N[C@H](Cc1csc2ccccc12)NC=O` [#6] yielded a Ki of 100 nM.

`CC(C)(N)C(=O)N[C@H](Cc1ccc2ccccc2c1)C(=O)N[C@H](Cc1csc2ccccc12)NC=O` [#7] showed a Ki of 226 nM.

For `CC(=O)N[C@@H](Cc1c[nH]c2ccccc12)NC(=O)[C@@H](Cc1csc2ccccc12)NC(=O)C(C)(C)N` [#11, Aib-D-Bal-DgTrp-C(O)CH3], the Ki was 38.2 nM.

`CC(=O)N[C@H](Cc1c[nH]c2ccccc12)NC(=O)[C@@H](Cc1csc2ccccc12)NC(=O)C(C)(C)N` [#12] showed a Ki of 2.56 nM.

With `O=CN[C@@H](Cc1c[nH]c2ccccc12)NC(=O)[C@@H](Cc1csc2ccccc12)NC(=O)C1CCNCC1` [#18] the Ki was 120 nM.

`O=CN[C@@H](Cc1ccc2ccccc2c1)NC(=O)[C@@H](Cc1csc2ccccc12)NC(=O)C1CCNCC1` [#20] showed a Ki of 133 nM.

With `CCC(=O)N[C@@H](Cc1c[nH]c2ccccc12)NC(=O)[C@@H](Cc1csc2ccccc12)NC(=O)C(C)(C)N` [#50] the Ki was 61.5 nM.

`CC(C)C(=O)N[C@@H](Cc1c[nH]c2ccccc12)NC(=O)[C@@H](Cc1csc2ccccc12)NC(=O)C(C)(C)N` [#51] gave a Ki of 20.2 nM.

Work on `CC(C)(C)C(=O)N[C@@H](Cc1c[nH]c2ccccc12)NC(=O)[C@@H](Cc1csc2ccccc12)NC(=O)C(C)(C)N` [#52] yielded a Ki of 65.1 nM.

With `CC(C)(N)C(=O)N[C@H](Cc1cccc2ccccc12)C(=O)N[C@H](Cc1c[nH]c2ccccc12)NC=O` [#65] the Ki was 16.8 nM.

`CC(C)(N)C(=O)N[C@H](Cc1csc2ccccc12)C(=O)N[C@@H](Cc1c[nH]c2ccccc12)OC(=O)C(F)(F)F` [#73] showed a Ki of 93 nM.
